The record followed here is patent US20240101552A1, “CARBONYL HETEROCYCLIC COMPOUND AND APPLICATION THEREOF” (SHANGHAI PHARMACEUTICALS HOLDING CO., LTD., priority 2020, published 2024).

A short description of data set [1]: Solubility remark in the LANCL2 binding table (footnote a). Further details: key: ª: “a” indicated poor solubility. The format is physicochemical.
In data set [2] the test system is TNBS-induced colitis in mice. Briefly: Alleviating effect on TNBS-induced colitis in mice, study (II). In kind it is in vivo, Balb/c mice. The note with it: vs Vehicle group; L compounds PO 50 mpk BID, Mesalazine PO 100 mpk QD. The method, then:
Sixty female Balb/c mice, weighing about 18 g and 8-10 weeks old, were randomly divided into twelve groups, including eleven model groups and one Sham control group. The administration was started on Day 1 and ended on Day 7, with the compounds prepared once a day, as detailed in Table 1 for route and frequency of administration, and Table 2 for compound preparation and volume of administration.
(§1) Balb/c mice weighing about 18-20 g were anesthetized with 0.25 mL of 1.25% Avertin on Day 0. The mice in the model group were perfused rectally with 150 μL of 1% TNBS solution (ethanol with a final concentration of 50%). The mice in the Sham control group were perfused rectally with 50% ethanol on Day 0.
(§2) The mouse colon was photographed, measured for the length, and weighed after the contents were removed. The colon of each mouse was then cut longitudinally at ½, rolled in a uniform direction by Swiss-roll method and fixed in neutral paraformaldehyde.
(§3) The DAI scoring consisted of 3 parts, taking the method of mixed scoring of weight change, stool and blood in stool, and the specific DAI scoring criteria were shown in Table 3. Throughout the experiment, the DAI scoring of all mice was done by the same person to ensure the scale consistency of the scoring.
The experimental data were statistically analyzed by ANOVA method, and data of other groups and the Vehicle (PO, QD) group were analyzed by Dunnett's test to compare data of multiple groups, *p<0.05, **p<0.01, ***p<0.005, ****p<0.0001

Data set [3] concerns TNBS-induced colitis in mice. Briefly: Alleviating effect on TNBS-induced enteritis (colitis) in mice, study (I). The format is in vivo, Balb/c mice. To be noted: vs Vehicle group, Mesalamine PO 100 mpk QD. The method, then:
Preparation method of L56: an appropriate amount of L56 compound was weighed into a brown sample vial, added with a certain volume of solvent 95% (20% HP-β-CD)+5% (10% sodium benzoate), the mixture was vortexed for 1 minute, and dissolved ultrasonically. The compound was prepared once a day.
Preparation method of L30: an appropriate amount of L30 compound was weighed into a brown sample vial, added with a certain volume of solvent 95% (20% HP-β-CD)+5% (10% sodium benzoate), the mixture was vortexed for 1 minute, and dissolved ultrasonically. The compound was prepared once a day.
Preparation method of Mesa (Mesalamine): an appropriate amount of Mesalamine (Selleck) was weighed into a brown sample vial, added with a certain volume of solvent 0.5% CMC-Na, the mixture was vortexed for 1 minute, and dissolved ultrasonically. The compound was prepared once a day.
Fifty-six female Balb/c mice, weighing about 18 g and 8-10 weeks old, were randomly divided into seven groups, including six model groups and one Sham control group. The administration was started on Day 1 and ended on Day 7, with the compounds prepared once a day, as detailed in Table 1 for route and frequency of administration, and Table 2 for compound preparation and volume of administration.
as §1, §2, §3
The histopathological scoring was performed by a professional pathologist on the clinical pathology platform in a double-blind manner.
The experimental data were statistically analyzed by ANOVA method, positive drug Mesalamine (PO, 100 mpk, QD) group, L56 (PO, 50 mpk, BID) group, L30 (PO, 50 mpk, BID) group, *p<0.05, **p<0.01, ***p<0.005, ****p<0.0001

With `O=C(c1cccc(-c2cn3ccccc3n2)c1)N1CCN(C(=O)c2cccc(-c3cn4ccccc4n3)c2)CC1` [Embodiment L-36, Piperazine-1,4-diylbis((3-(imidazol[1,2-a]pyridin-2-yl)phenyl)methanone)], the “solubility (footnote a)” value in data set [1] is given as “ª”.
Consider `Nc1ccc(O)c(C(=O)O)c1` [Mesalamine], for which, in data set [2], the “colon weight (FIG. 18B)” value is “less colon weight” and the “weight-to-length ratio of colon (FIG. 18C)” value was “significantly lower”. Also, the “colon tissue pathological scores (HE staining)” value in data set [3] (L56 PO 50 mpk BID) is reported as “lower colon tissue pathological scores with a statistically significant difference”. Moreover, in data set [3] (L compounds PO 50 mpk BID), the “DAI scores (FIG. 13B)” value is recorded as “significantly lower”, the “colon length (FIG. 14B)” value is listed as “significantly more colon length”, the “colon weight (FIG. 14C)” value is given as “less colon weight” and the “weight loss of the mice (FIG. 13A)” value was “significantly slowed down”. The “weight-to-length ratio of colon (FIG. 14A)” value in data set [3] (L compounds PO 50 mpk BID) is given as “significantly lower”.
